Patent US20210015883A1, “A NOVEL SYNERGIC HERBAL FORMULATION FOR THE PREVENTION AND TREATMENT OF PRE-DIABETES, DIABETES AND OTHER INSULIN RESISTANCE CASES” (priority 2018, published 2021)

Columns and labels:
PPAR gamma = PPAR gamma gene expression by Real Time PCR in differentiated 3T3L1 adipocytes; type: cell-based; details: SC = Pioglitazone 6 μg/ml, 12th day, control = 1
Procedure: Samples of Herbal formulation were evaluated over a concentration range from 0.5 to 10 μg/ml. Pioglitazone, a known anti-diabetic agent was used as the standard control at a dose of 6 μg/ml; a dose extrapolated from the median therapeutic human dose. The Herbal formulation was dissolved in NAOH (0.1N).
Viability studies were carried out to eliminate cytotoxic concentrations of the samples using MTT assay. Based on the results of the MTT assay, the following concentrations were used for the PPAR Expression studies. Concentration selected was as follows 2.5, 5, 10 μg/ml.
3T3L1 Fibroblasts were grown in DMEM medium, supplemented with 10% FBS, in a humidified atmosphere of 5% CO2 at 370 C. […]
On the 12th day after differentiation, total RNA was extracted with TRIzol reagent according to the manufacturer's instructions from the differentiated adipocytes. The concentration and purity of RNA were determined by measuring the absorbance at 260 nm (A260) and the ratio of the absorbance at 260 nm to the absorbance at 280 nm (A260/A280), respectively. […] SYBR Green chemistry was used to perform the quantitative determination of the relative expression of PPAR gene. The PPAR gene was analyzed using the Rotogene Q; Qiagen real-time polymerase chain reaction machine. […]

[1] = system: high fat diet and Streptozotocin (stz) induced insulin resistance in rats; assay: Fasting blood glucose levels in high fat diet + STZ rats; type: in vivo, Albino Wistar rats
Procedure: (§1) Evaluation of antidiabetic effect of herbal formulation against high fat diet and Streptozotocin (stz) induced insulin resistance in rats.
(§2) Rats were divided 5 into groups of 8 rats each and treated in the following way:
Group I Normal control group—Received normal chow diet and drinking water daily for 45 days and citrate buffer (1 mL/kg, i.p) on the 15th day of start of experiment.
Group II Toxicant Control: Received HFD throughout the experiment (45 days) and STZ (40 mg/kg, i.p) on the 15th day of start of experiment.
(§3) Group III Herbal formulation I as per Example 4 (500 mg): Received HFD throughout the experiment (45 days), STZ (40 mg/kg, i.p) on the 15th day of start of experiment and the Herbal formulation (500 mg/kg, p.o) from the 18th day for the next 28 days.
(§4) Group IV Herbal formulation II as per Example 4 (1000 mg): Received HFD throughout the experiment (45 days), STZ (40 mg/kg, i.p) on the 15th day of start of experiment and the Herbal formulation (1000 mg/kg, p.o) from the 18th day for the next 28 days.
(§5) Group V Reference standard: Receive HFD throughout the experiment (45 days), STZ (40 mg/kg, i.p) on the 15th day of start of experiment and Metformin, (120 mg/kg) from the 18th day for the next 28 days.
(§6) The rats were allocated into dietary regimens by feeding HFD (58% fat, 25% protein and 17% carbohydrate, as a percentage of total kcal) and drinking water ad libitum, respectively, for the initial period of 2 weeks. After 2 weeks of dietary manipulation, the group of rats fed with HFD were injected a single low dose of STZ (40 mg/kg, i.p), while the Normal control rats were given the vehicle citrate buffer (pH 4.4) in a dose volume of 1 mL/kg, i.p. The fasting blood glucose (FBG) were measured 3 days after the STZ injection. The rats with FBG of more than 250 mg/dL were considered diabetic and selected for further pharmacological studies and their dosing with the Herbal formulations commenced and continued for the next 28 days. The rats were allowed to continue to feed on their respective diets until the end of the study. All FBG and insulin levels were determined on different days viz. 18th day (3rd day after STZ injection), 25th, 32nd, 39th and 45th days (24 h after the previous dose) by collecting blood from the tail vein/retro orbital plexus. On the 44th day Oral Glucose Tolerance Test (OGTT) was performed wherein animals of all groups received glucose solution (1.5 g/kg) 30 minutes after the above treatments. Blood glucose and insulin levels were determined at 0, 30, 60, 90, 120 min after glucose administration. Blood glucose levels were measured using a digital glucometer. Insulin was assayed by using a RIA kit.
(§7) √—Correction of the nonlinear values distribution. • A. Animals used: 40 • B. Species/Common name: Albino Wistar rats • C. Age/weight/size: Ten weeks, 150-180 g • D. Gender: Male • E. Number to be used (Year-wise breakups and total figures needed to be given): 40 • F. Number of days each animal will be housed: 3 months • G. Details of injections schedule: • H. Details of withdrawal: • Volumes: 2 mL per animal by retro-orbital plexus for insulin assay and 0.1 mL by tail vein for blood glucose. • I. Sites: Retro-orbital plexus, tail vein

[2] = system: high fat diet and Streptozotocin (stz) induced insulin resistance in rats; assay: Matsuda index from OGTT in high fat diet + STZ rats; type: in vivo, Albino Wistar rats; details: Metformin 120 mg/kg p.o., HFD+STZ rats, value less than 4.3 indicates insulin resistance
Procedure: as §6, with “After” for “The rats were allocated into dietary regimens by feeding HFD (58% fat, 25% protein and 17% carbohydrate, as a percentage of total kcal) and drinking water ad libitum, respectively, for the initial period of 2 weeks. After”, “The rats with FBG of more than 250 mg/dL were considered diabetic and selected for further pharmacological studies and their dosing with the Herbal formulations commenced and continued for the next 28 days.” left out

[3] = system: high fat diet and Streptozotocin (stz) induced insulin resistance in rats; assay: HOMA-IR insulin resistance index in high fat diet + STZ rats; type: in vivo, Albino Wistar rats; details: HFD+STZ rats
Procedure: as §6, with “After” for “The rats were allocated into dietary regimens by feeding HFD (58% fat, 25% protein and 17% carbohydrate, as a percentage of total kcal) and drinking water ad libitum, respectively, for the initial period of 2 weeks. After”, “The rats with FBG of more than 250 mg/dL were considered diabetic and selected for further pharmacological studies and their dosing with the Herbal formulations commenced and continued for the next 28 days.” left out
Insulin resistance is calculated using the following methods: […]
HOMA is a model of the relationship of glucose and insulin dynamics that predicts fasting steady-state glucose and insulin concentrations for a wide range of possible combinations of insulin resistance and β-cell function. Insulin levels depend on the pancreatic β-cell response to glucose concentrations while, glucose concentrations are regulated by insulin-mediated glucose production via the liver. Thus, deficient β-cell function will echo a diminished response of β-cell to glucose-stimulated insulin secretion. Similarly, insulin resistance is reflected by the diminished suppressive effect of insulin on hepatic glucose production. […] HOMA describes this glucose-insulin homeostasis by means of a set of simple, mathematically-derived nonlinear equations. The approximating equation for insulin resistance has been simplified; it uses a fasting blood sample. It is derived from the use of the insulin-glucose product, divided by a constant.
The product of FPG×FPI is an index of hepatic insulin resistance.
I0—Fasting plasma insulin concentration (mIU/L), G0—Fasting plasma glucose concentration (mg/dL),

[4] = system: high fat diet and Streptozotocin (stz) induced insulin resistance in rats; assay: Oral glucose tolerance test (OGTT) on day 44 in high fat diet + STZ rats; type: in vivo, Albino Wistar rats; details: Metformin 120 mg/kg p.o., HFD+STZ rats
Procedure: as §1, §3, §4, §5, §6, §7

[5] = system: high fat diet and Streptozotocin (stz) induced insulin resistance in rats; assay: QUICKI insulin sensitivity index in high fat diet + STZ rats; type: in vivo, Albino Wistar rats; details: HFD+STZ rats
Procedure: as §6
Quantitative insulin sensitivity check index (QUICKI) is an empirically-derived mathematical transformation of fasting blood glucose and plasma insulin concentrations that provide a consistent and precise ISI with a better positive predictive power. It is simply a variation of HOMA equations, as it transforms the data by taking both the logarithm and the reciprocal of the glucose-insulin product, thus slightly skewing the distribution of fasting insulin values. […] It employs the use of fasting values of insulin and glucose as in HOMA calculations. QUICKI is virtually identical to the simple equation form of the HOMA model in all aspects, except that a log transform of the insulin glucose product is employed to calculate QUICKI. The QUICKI can be determined from fasting plasma glucose (mg/dl) and insulin (μIU/ml) concentrations.
QUICKI values range between 0.45 in healthy individuals (noted as unusually healthy in the original study) and 0.30 in diabetics. Lower values reflect greater resistance with values below 0.339 indicating insulin resistance.

[6] = system: high fat diet and Streptozotocin (stz) induced insulin resistance in rats; assay: Insulin levels in high fat diet + STZ rats (RIA); type: in vivo, Albino Wistar rats; details: HFD+STZ rats
Procedure: as §1, §2, §3, §4, §5, §6, §7

[7] = Metformin 120 mg/kg p.o. group, Day 18 (start of treatment)
[8] = Metformin 120 mg/kg p.o., Day 25
[9] = Metformin 120 mg/kg p.o., Day 32
[10] = Metformin 120 mg/kg p.o., Day 39
[11] = Metformin 120 mg/kg p.o., Day 45

For CCc1ccc(CCOc2ccc(CC3SC(=O)NC3=O)cc2)nc1 (centres unmarked) [Pioglitazone], the “2^-DDCT (relative PPAR gamma mRNA expression)” value (PPAR gamma) was 2.292.

With CN(C)C(=N)N=C(N)N [Metformin] the “course of BGL over 4 weeks of treatment (in words)” value ([1]; HFD+STZ rats) was “gradual decrease in BGL”, the Blood glucose level ([1]; Metformin 120 mg/kg p.o. group, HFD+STZ rats, Day 1 (before treatment, dosing from day 18)) was 126.87 ± 2.41 mg/dL and the Blood glucose level ([1]; Metformin 120 mg/kg p.o. group, HFD+STZ rats, Day 7 (before treatment)) was 138.63 ± 1.54 mg/dL. For the same molecule, the Blood glucose level ([1]; Metformin 120 mg/kg p.o. group, HFD+STZ rats, Day 15 (before treatment)) was 156.37 ± 3.17 mg/dL, the Blood glucose level ([1]; Metformin 120 mg/kg p.o. group, HFD+STZ rats, Day 18 (3rd day after STZ, start of treatment)) was 396.67 ± 43.72 mg/dL and the Blood glucose level ([1]; Metformin 120 mg/kg p.o., HFD+STZ rats, Day 25) was 183.167 ± 13.58 mg/dL. It also gave a Blood glucose level ([1]; Metformin 120 mg/kg p.o., HFD+STZ rats, Day 32) of 245.167 ± 28.86 mg/dL, a Blood glucose level ([1]; Metformin 120 mg/kg p.o., HFD+STZ rats, Day 39) of 191.83 ± 25.08 mg/dL and a Blood glucose level ([1]; Metformin 120 mg/kg p.o., HFD+STZ rats, Day 45) of 152.83 ± 8.40 mg/dL. The “BGL at the end of the study compared with the HFD+STZ group (in words)” value ([1]; treatment groups) was “significantly lower”, the “Matsuda Index” value [2] was 12.56 and the HOMA-IR [3, 7] was 31.7 ± 4.75. It also gave an HOMA-IR [3, 8] of 9.91 ± 0.69, an HOMA-IR [3, 9] of 15.8 ± 2.76 and an HOMA-IR [3, 10] of 10.56 ± 1.7. For the same molecule, the HOMA-IR [3, 11] was 5.81 ± 0.39, the “OGTT Glucose” value ([4]; 0 Min after glucose 1.5 g/kg) was 129.5 ± 1.17 mg/dL and the “OGTT Insulin” value ([4]; 0 Min after glucose 1.5 g/kg) was 13.12 ± 0.97 mIU/L. For the same molecule, the “OGTT Glucose” value ([4]; 30 Min after glucose 1.5 g/kg) was 249.50 ± 0.56 mg/dL, the “OGTT Insulin” value ([4]; 30 Min after glucose 1.5 g/kg) was 27.308 ± 1.4 mIU/L and the “OGTT Glucose” value ([4]; 90 Min after glucose 1.5 g/kg) was 185.167 ± 2.08 mg/dL. The “OGTT Insulin” value ([4]; 90 Min after glucose 1.5 g/kg) was 22.72 ± 1.49 mIU/L, the “OGTT Glucose” value ([4]; 120 Min after glucose 1.5 g/kg) was 149.83 ± 2.81 mg/dL and the “OGTT Insulin” value ([4]; 120 Min after glucose 1.5 g/kg) was 14.95 ± 1.035 mIU/L. It also gave a QUICKI [5, 7] of 0.24 ± 0.0057, a QUICKI [5, 8] of 0.276 ± 0.0021 and a QUICKI [5, 9] of 0.26 ± 0.0042. The QUICKI [5, 10] was 0.27 ± 0.0055, the QUICKI [5, 11] was 0.29 ± 0.0030 and the Insulin level ([6]; Metformin 120 mg/kg p.o. group, date printed as "—" (first reading)) was 31.56 ± 1.95 mIU/L. The Insulin level [6, 8] was 22.56 ± 2.24 mIU/L, the Insulin level [6, 9] was 27.84 ± 5.014 mIU/L and the Insulin level [6, 10] was 23.40 ± 3.47 mIU/L. The Insulin level [6, 11] was 15.36 ± 0.58 mIU/L.
